Data from paper PMC11533527, “A yeast two-hybrid system to obtain triple-helical ligands from combinatorial random peptide libraries” (The Journal of Biological Chemistry, 2024).
Where no end group is shown, it is not given here.

Tests used:
HSP47 (GAL4-BD-fusion) = experiment: Yeast two-hybrid interaction with BD-fusion HSP47 (indicator of triple-helical conformation); assay type: cell-based, mouse
Source text: We expressed (Pro-Gly-Pro)-repeating peptides with a repeat number of 10, 13, or 23, as GAL4-AD-fusion proteins in yeast cells. The lengths of (Pro-Gly-Pro)10, (Pro-Gly-Pro)13, and (Pro-Gly-Pro)23 correspond to those of the N-terminal host, the guest plus the N-terminal host, and the guest plus the N- and C-hosts in the above peptide design (Fig. 1B), respectively. The peptides with fewer (Pro-Gly-Pro)-repeats have lower thermal stability of the triple helices ([19]). We set three different culture temperatures, 16, 30, and 37 °C, with the expectation of identifying the binding of BD-fusion HSP47 to these three peptides with GAL4-AD by the yeast two-hybrid system (Fig. 3). The mated yeast cells were selected by His and Ade auxotrophy in the presence of aureobasidin and X-α-Gal. When HSP47 interacts with the peptides, GAL4-BD and GAL4-AD are brought into proximity to activate the transcription of reporter genes (AUR1-C, ADE2, HIS3, and MEL1). The reporter gene expression allows yeast cells to survive on the plates and turn blue by degrading X-α-Gal. The interaction between HSP47 (bait) and peptides (prey) was detected by the growth of blue colonies on the selection plates. […] HSP47 bound only to (Pro-Gly-Pro)23 in yeast cells at 37 °C. At 30 °C, HSP47 bound to (Pro-Gly-Pro)13 as well as (Pro-Gly-Pro)23, but not to (Pro-Gly-Pro)10. At 16 °C, HSP47 bound to all three of the peptides.
A gene fragment encoding full-length mature mouse PEDF and HSP47 with EcoRI and SalI sites was obtained by PCR amplification, as described in the literature ([15], [45]). The DNA fragments and a pGBKT7 vector were ligated after digestion with EcoRI and SalI and transformed into E. coli HST08 competent cells (TaKaRa, Shiga, Japan). To prepare plasmids encoding PEDF R148A and D255N mutants, inverse PCR was performed with the above GAL4-BD-fused PEDF in a pGBKT7 vector as a template by Primestar MAX (TaKaRa). The PCR product was ligated with Gibson assembly reagents (New England Biolabs, Hertfordshire, UK), followed by transformation into HST08 competent cells. […]
(§1) Y2H interaction was detected by incubation of the generated diploids on minimal-medium quadruple-dropout (QDO; SD/-Leu-Trp-His-Ade) plates with 40 μg/ml X-α-Gal (FUJIFILM Wako Pure Chemical, Osaka, Japan) and 200 ng/ml aureobasidin A (TaKaRa) (QDOGA) plates and incubated for 3–5 days. Positivity for interaction was recorded upon the generation of yeast colonies that appeared blue.

[1] = system: full-length mouse PEDF (GAL4-BD-fusion); experiment: Yeast two-hybrid interaction of AD-fusion peptides with BD-fusion WT-PEDF; assay type: cell-based; details: yeast diploids cultured at 25 °C for 5 days
Source text: To determine whether the peptides with the obtained sequences bind to PEDF in the same manner as the native PEDF-binding sequence, α1(I)930–938, we examined independent two-hybrid interactions of the three peptides and their mutants in which Arg at Yaa4 was substituted with Ala. […] We also examined the binding of the peptides to collagen-binding-null or heparin-binding-null PEDF mutants that we already reported ([33]). […] Meanwhile, the interaction was not observed for the peptide with the 1-2 sequence, probably because Cys at Xaa9 led to weaker interaction with PEDF than Leu ([15]). […] By contrast, the interactions were maintained using heparin-binding-null PEDF mutant (PEDF R148A) as a bait protein.
The bait and prey plasmids were transformed into S. cerevisiae Y2H gold (MATa, trp1-901, leu2-3, 112, ura3-52, his3-200, gal4Δ, gal80Δ, LYS2::GAL1UAS-Gal1TATA-His3, GAL2UAS-Gal2TATA-Ade2, URA3::MEL1UAS-Mel1TATA, AUR1-C MEL1; TaKaRa) and Y187 strains (MATα, ura3-52, his3-200, ade2-101, trp1-901, leu2-3, 112, gal4Δ, gal80Δ, met-, URA3::GAL1UAS-Gal1TATA-LacZ, MEL1; TaKaRa), in accordance with the manufacturer’s protocol. They were incubated on SD/-Trp and SD/-Leu plates, respectively, at 30 °C for 4–5 days for the selection of transformed clones.
Diploids were prepared by mixing them on yeast peptone dextrose adenine (YPDA) plates. After incubation at 30 °C overnight, they were spread on minimal-medium double-dropout (DDO; SD/-Leu-Trp) plates and incubated at 30 °C for 2–3 days for the selection of diploids.
as §1

Q: With “(Pro-Gly-Pro)10 [GAL4-AD-fusion (Pro-Gly-Pro)10]” as the substance, how does the “Two-hybrid interaction with HSP47” value (HSP47 (GAL4-BD-fusion); cultured at 30 °C for 3 days) read?
A: not

Q: With “RGHRGFLGL [1-3, GAL4-AD-fusion peptide clone from the random library]” as the substance, how does the “Two-hybrid interaction with BD-fusion WT-PEDF (blue colonies on QDOGA plates)” value [1] read?
A: observed

Q: With “KGCRGLHGL [1-1, GAL4-AD-fusion peptide clone from the random library, flanked by (Pro-Gly-Pro)10 hosts]” as the substance, how does the “Two-hybrid interaction with BD-fusion WT-PEDF (blue colonies on QDOGA plates)” value [1] read?
A: observed

Q: Which “Two-hybrid interaction with HSP47” value (HSP47 (GAL4-BD-fusion); cultured at 30 °C for 3 days) does the source give for “(Pro-Gly-Pro)23 [GAL4-AD-fusion (Pro-Gly-Pro)23]” here?
A: bound

Q: And the “Two-hybrid interaction with HSP47” value (HSP47 (GAL4-BD-fusion); cultured at 37 °C for 3 days)?
A: bound

Q: For “RGVRGFEGC [1-2, GAL4-AD-fusion peptide clone from the random library]”, which “Two-hybrid interaction with BD-fusion WT-PEDF (blue colonies on QDOGA plates)” value [1] is on record?
A: not observed

Q: For “(Pro-Gly-Pro)10-Lys-Gly-His-Arg-Gly-Phe-Ser-Gly-Leu-(Pro-Gly-Pro)10 [α1(I)930–938]”, which “Two-hybrid interaction with BD-fusion WT-PEDF (blue colonies on QDOGA plates)” value [1] is on record?
A: observed

Q: With “(Pro-Gly-Pro)13 [GAL4-AD-fusion (Pro-Gly-Pro)13]” as the substance, how does the “Two-hybrid interaction with HSP47” value (HSP47 (GAL4-BD-fusion); cultured at 30 °C for 3 days) read?
A: bound
